SMILES strings stand for the structures. Numbered stars: 1 amine (or outer) side, 2 acyl side, 3 side chain; on linkers, the order of the positions; unused ones are H or OH. Bridge positions count the residues as written; N and C are the ends. Square brackets hold non-standard residues; d marks the D form. Side chains are listed from the residue outwards. Peptide text beside a SMILES is read from it. I, II: the chains in the order shown. * marks the point of attachment. C18 diacid = O=C(O)CCCCCCCCCCCCCCCCC(=O)*; γGlu = O=C(O)[C@H](CCC(=O)[*:2])N[*:1]; Ac4c = NC1(C(=O)O)CCC1; AEEA = NCCOCCOCC(=O)O; Aib = CC(C)(N)C(=O)O

As a reminder, the IC50 is the midpoint of a concentration-inhibition curve.

T1 sequence (P47871 26-477): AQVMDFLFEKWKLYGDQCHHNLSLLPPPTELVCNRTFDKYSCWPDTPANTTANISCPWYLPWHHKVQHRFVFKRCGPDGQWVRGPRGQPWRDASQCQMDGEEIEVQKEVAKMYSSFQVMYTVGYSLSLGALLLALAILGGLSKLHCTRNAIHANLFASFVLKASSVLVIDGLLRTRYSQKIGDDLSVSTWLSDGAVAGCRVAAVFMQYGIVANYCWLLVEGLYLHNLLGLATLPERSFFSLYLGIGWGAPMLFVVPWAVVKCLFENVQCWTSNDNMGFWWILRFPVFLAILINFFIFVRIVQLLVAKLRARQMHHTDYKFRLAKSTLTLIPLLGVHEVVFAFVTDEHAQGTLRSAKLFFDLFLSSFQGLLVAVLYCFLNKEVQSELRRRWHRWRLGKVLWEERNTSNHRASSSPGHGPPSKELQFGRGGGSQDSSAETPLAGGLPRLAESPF

The experiment concerns the target T1, human glucagon receptor (Homo sapiens, UniProt P47871).
T1 construct: expressed in transfected cells; host or cells: BHK cells (parent BHK570, CRE luciferase clone BHK/KZ10-20-48), clone pLJ6'-4-25
In words: Glucagon receptor binding, 125I-glucagon displacement SPA on isolated membranes. The settings on record: displacement of 125I-glucagon from membranes; read-out: IC50 GlucR. How it is done: The purpose of this assay was to test the in vitro receptor binding activity (i.e. affinity) of the glucagon derivatives of the invention. The receptor binding activity is a measure of affinity of a derivative for the human glucagon receptor.
The receptor binding of each compound to the human glucagon receptor was measured in a displacement binding assay. In this type of assay a labelled ligand (in this case 125I-glucagon) is bound to the receptor. Each derivative was added in a series of concentrations to isolated membranes containing the human glucagon receptor and displacement of the labelled ligand is monitored. The receptor binding was reported as the concentration at which half of the labelled ligand is displaced from the receptor, the IC50 value.
In order to test the binding of the derivatives to albumin, the assay may be performed in a very low concentration of serum albumin (max. 0.001% final assay concentration) as well as in the presence of a higher concentration of serum albumin (0.2% final assay concentration). An increase of the IC50 value, in the presence of serum albumin indicates an affinity to serum albumin and represents a method to predict a protracted pharmacokinetic profile of the test substance in animal models.
The following chemicals were used in the assay: DMEM w Glutamax (Gibco 61965-026), Pen/strep (Invitrogen 15140-122), G418 (Invitrogen 10131-027), Versene (Gibco 15040), 1 M Hepes (Gibco 15630), PBS (Invitrogen 14190-094), fetal calf serum (Invitrogen 16140-071), MgCl2 (Merck 1.05832.1000), EDTA (Invitrogen 15575-038), CaCl2 (Sigma, C5080), Tween 20 (Amresco 0850C335), ovalbumin (Sigma A5503), SPA particles (wheat germ agglutinin (WGA) SPA beads, Perkin Elmer RPNQ0001), [125I]-glucagon (produced in-house), OptiPlate™-96 (Packard 6005290).
HME buffer consisted of 25 mM HEPES, 2 mM MgCl2 and 1 mM EDTA, and pH was adjusted to 7.4. Assay buffer consisted of 50 mM HEPES supplemented with 5 mM MgCl2, 1 mM CaCl2, 0.02% Tween 20 and 0.1% Ovalbumin, and pH was adjusted to 7.4.
The cells used in this assay (clone BHK hGCGR A3*25) were BHK cells stable transfected with an expression plasmid containing the cDNA encoding the human glucagon receptor.
The cells were grown at 5% CO2 in DMEM, 10% fetal calf serum, 1% Pen/Strep (Penicillin/Streptomycin) and 1.0 mg/ml of the selection marker G418. To make a membrane preparation the cells were grown to approximately 80% confluence. The cells were washed twice in phosphate-buffered saline and harvested. The cells were pelleted using a brief centrifugation and the cell pellet was kept on ice. Lyse the cells by adding approx. 5 ml HME buffer, mix by pipetting and snap freeze in liquid nitrogen. Thaw quickly and add HME buffer to 10 ml. The cell pellet was homogenised with an ULTRA-THURRAX dispersing instrument for 20-30 sec. The homogenate was centrifuged at 20.000×G, 4° C. for 10 min. The pellet was re-suspended (homogenised) in 1-2 ml HME buffer. The protein concentration was determined. The membranes were aliquoted and snap-frozen in liquid nitrogen and stored at minus 80° C.
1. For the receptor binding assay, 50 μl of the assay buffer was added to each well of an assay plate.
2. Test compounds were serially diluted to give the following concentrations: 8×10EE-7 M, 8×10EE-8 M, 8×10EE-9 M, 8×10EE-10 M, 8×10EE-11 M, 8×10EE-12 M and 8×10EE-13 M. Twenty-five μl were added to appropriate wells in the assay plate.
3. Cell membrane aliquots were thawed and diluted to their working concentration. Fifty μl were added to each well in the assay plate.
4. WGA SPA beads were suspended in assay buffer at 20 mg/ml. The suspension was diluted to 10 mg/ml in assay buffer just prior to addition to the assay plate. Fifty μl were added to each well in the assay plate.
5. The incubation was started by adding 25 μl of 480 pM solution of [125I]-glucagon to each well of the assay plate. A 25 μl aliquot was reserved for measuring total counts/well.
6. The assay plate was incubated for 2 h at 25° C.
7. […]
As to `CC(C)C[C@H](NC(=O)[C@H](Cc1ccc(O)cc1)NC(=O)[C@H](CCCCN)NC(=O)[C@H](CO)NC(=O)[C@H](CC(C)C)NC(=O)[C@H](CC(=O)O)NC(=O)[C@H](CO)NC(=O)[C@@H](NC(=O)[C@H](Cc1ccccc1)NC(=O)[C@@H](NC(=O)CNC(=O)[C@H](Cc1c[nH]cn1)NC(=O)C(C)(C)NC(=O)[C@@H](N)Cc1c[nH]cn1)[C@@H](C)O)[C@@H](C)O)C(=O)N[C@@H](CCC(=O)O)C(=O)N[C@@H](CO)C(=O)N[C@@H](CCCNC(=N)N)C(=O)N[C@@H](CCCNC(=N)N)C(=O)N[C@@H](C)C(=O)N[C@@H](CCCNC(=N)N)C(=O)N[C@@H](CCC(=O)O)C(=O)N[C@@H](Cc1ccccc1)C(=O)N[C@H](C(=O)N[C@@H](CCC(N)=O)C(=O)N[C@@H](Cc1c[nH]c2ccccc12)C(=O)N[C@@H](CC(C)C)C(=O)N[C@@H](CC(C)C)C(=O)N[C@@H](CCCCNC(=O)CC[C@H](NC(=O)COCCOCCNC(=O)COCCOCCNC(=O)CC[C@H](NC(=O)CC[C@H](NC(=O)CCCCCCCCCCCCCCCCC(=O)O)C(=O)O)C(=O)O)C(=O)O)C(=O)N[C@H](C(N)=O)[C@@H](C)O)C(C)C` [Example 30, N^ε28-[(4S)-4-carboxy-4-[[2-[2-[2-[[2-[2-[2-[[(4S)-4-carboxy-4-[[(4S)-4-carboxy-4-(17-carboxyheptadecanoylamino)butanoyl]amino]butanoyl]amino]ethoxy]ethoxy]acetyl]amino]ethoxy]ethoxy]acetyl]amino]butanoyl]-[Aib2,His3,Leu10,Glu15,Arg20,Glu21,Leu27,Lys28]-Glucagon amide] (H-H[Aib]HGTFTSDLSKYLESRRAREFVQWLLK([γGlu-AEEA-AEEA-γGlu-γGlu-C18 diacid])T-NH2; N-terminus assumed), the IC50 is 0.5 nM.
As for `CC(C)C[C@H](NC(=O)[C@H](Cc1ccc(O)cc1)NC(=O)[C@H](CCCCN)NC(=O)[C@H](CO)NC(=O)[C@H](CC(C)C)NC(=O)[C@H](CC(=O)O)NC(=O)[C@H](CO)NC(=O)[C@@H](NC(=O)[C@H](Cc1ccccc1)NC(=O)[C@@H](NC(=O)CNC(=O)[C@H](Cc1c[nH]cn1)NC(=O)C(C)(C)NC(=O)[C@@H](N)Cc1c[nH]cn1)[C@@H](C)O)[C@@H](C)O)C(=O)N[C@@H](CCC(=O)O)C(=O)N[C@@H](CO)C(=O)N[C@@H](CCCNC(=N)N)C(=O)N[C@@H](CCCNC(=N)N)C(=O)N[C@@H](C)C(=O)N[C@@H](CCCNC(=N)N)C(=O)N[C@@H](CCC(=O)O)C(=O)N[C@@H](Cc1ccccc1)C(=O)N[C@H](C(=O)N[C@@H](CCC(N)=O)C(=O)N[C@@H](Cc1c[nH]c2ccccc12)C(=O)N[C@@H](CC(C)C)C(=O)N[C@@H](CC(C)C)C(=O)N[C@@H](CCCCNC(=O)CC[C@H](NC(=O)CC[C@H](NC(=O)COCCOCCNC(=O)COCCOCCNC(=O)CC[C@H](NC(=O)CCCCCCCCCCCCCCCCC(=O)O)C(=O)O)C(=O)O)C(=O)O)C(=O)N[C@H](C(N)=O)[C@@H](C)O)C(C)C` [Example 33, N^ε28-[(4S)-4-carboxy-4-[[(4S)-4-carboxy-4-[[2-[2-[2-[[2-[2-[2-[[(4S)-4-carboxy-4-(17-carboxyheptadecanoylamino)butanoyl]amino]ethoxy]ethoxy]acetyl]amino]ethoxy]ethoxy]acetyl]amino]butanoyl]amino]butanoyl]-[Aib2,His3,Leu10,Glu15,Arg20,Glu21,Leu27,Lys28]-Glucagon amide] (H-H[Aib]HGTFTSDLSKYLESRRAREFVQWLLK([γGlu-γGlu-AEEA-AEEA-γGlu-C18 diacid])T-NH2; N-terminus assumed), the IC50 came to 2 nM.
In the case of `CC(C)C[C@H](NC(=O)[C@H](Cc1ccc(O)cc1)NC(=O)[C@H](CCCCN)NC(=O)[C@H](CO)NC(=O)[C@H](CC(C)C)NC(=O)[C@H](CC(=O)O)NC(=O)[C@H](CO)NC(=O)[C@@H](NC(=O)[C@H](Cc1ccccc1)NC(=O)[C@@H](NC(=O)CNC(=O)[C@H](Cc1c[nH]cn1)NC(=O)C(C)(C)NC(=O)[C@@H](N)Cc1c[nH]cn1)[C@@H](C)O)[C@@H](C)O)C(=O)N[C@@H](CCC(=O)O)C(=O)N[C@@H](CO)C(=O)N[C@@H](CCCCN)C(=O)N[C@@H](CCCNC(=N)N)C(=O)N[C@@H](C)C(=O)N[C@@H](CCCNC(=N)N)C(=O)N[C@@H](CCC(=O)O)C(=O)N[C@@H](Cc1ccccc1)C(=O)N[C@H](C(=O)N[C@@H](CCC(N)=O)C(=O)N[C@@H](Cc1c[nH]c2ccccc12)C(=O)N[C@@H](CC(C)C)C(=O)N[C@@H](CC(C)C)C(=O)N[C@@H](CCCCNC(=O)CC[C@H](NC(=O)CC[C@H](NC(=O)CC[C@H](NC(=O)CCCCCCCCCCCCCCCCC(=O)O)C(=O)O)C(=O)O)C(=O)O)C(=O)N[C@H](C(N)=O)[C@@H](C)O)C(C)C` [Example 34, N^ε28-[(4S)-4-carboxy-4-[[(4S)-4-carboxy-4-[[(4S)-4-carboxy-4-(17-carboxyheptadecanoylamino)butanoyl]amino]butanoyl]amino]butanoyl]-[Aib2,His3,Leu10,Glu15,Lys17,Arg20,Glu21,Leu27,Lys28]-Glucagon amide] (H-H[Aib]HGTFTSDLSKYLESKRAREFVQWLLK([γGlu-γGlu-γGlu-C18 diacid])T-NH2; N-terminus assumed), the IC50 was found to be 0.2 nM.
Under `CC(C)C[C@H](NC(=O)[C@H](Cc1ccc(O)cc1)NC(=O)[C@H](CCCCN)NC(=O)[C@H](CO)NC(=O)[C@H](CC(C)C)NC(=O)[C@H](CC(=O)O)NC(=O)[C@H](CO)NC(=O)[C@@H](NC(=O)[C@H](Cc1ccccc1)NC(=O)[C@@H](NC(=O)CNC(=O)[C@H](Cc1c[nH]cn1)NC(=O)C1(NC(=O)[C@@H](N)Cc2c[nH]cn2)CCC1)[C@@H](C)O)[C@@H](C)O)C(=O)N[C@@H](CCC(=O)O)C(=O)N[C@@H](CO)C(=O)N[C@@H](CCCNC(=N)N)C(=O)N[C@@H](CCCNC(=N)N)C(=O)N[C@@H](C)C(=O)N[C@@H](CCC(N)=O)C(=O)N[C@@H](CC(=O)O)C(=O)N[C@@H](Cc1ccccc1)C(=O)N[C@H](C(=O)N[C@@H](CCC(N)=O)C(=O)N[C@@H](Cc1c[nH]c2ccccc12)C(=O)N[C@@H](CC(C)C)C(=O)N[C@@H](CC(C)C)C(=O)N[C@@H](CCCCNC(=O)CNC(=O)[C@H](CO)NC(=O)[C@H](CCC(=O)O)NC(=O)CNC(=O)[C@H](CO)NC(=O)CC[C@H](NC(=O)CC[C@H](NC(=O)CCCCCCCCCCCCCCCCC(=O)O)C(=O)O)C(=O)O)C(=O)N[C@H](C(N)=O)[C@@H](C)O)C(C)C` [Example 35, N^ε28-[2-[[(2S)-2-[[(2S)-4-carboxy-2-[[2-[[(2S)-2-[[(4S)-4-carboxy-4-[[(4S)-4-carboxy-4-(17-carboxyheptadecanoylamino)butanoyl]amino]butanoyl]amino]-3-hydroxypropanoyl]amino]acetyl]amino]butanoyl]amino]-3-hydroxypropanoyl]amino]acetyl]-[Acb2,His3,Leu10,Glu15, Leu27,Lys28]-Glucagon amide] (I: H-H[Ac4c]HGTFTSDLSKYLESRRAQDFVQWLLKT-NH2 / II: {C18 diacid-γGlu-γGlu}-SGESG; amide I:28-II:C; N-terminus assumed) stands 0.7 nM.

Source of the values: patent publication US9474790B2, “Stable, protracted GLP-1/glucagon receptor co-agonists for medical use” (Novo Nordisk A/S, priority 2013, dated 2016).
